Source: ChEMBL document CHEMBL1150243, “Lignan glycosides from Neoalsomitra integrifoliola” (2008)

Test: Antiinflammatory activity against rat polymorphonuclear leucocytes assessed as inhibition of platelet activating factor-induced beta-glucuronidase release
Assay type: functional

C[C@@H]1C(=O)O[C@H]2[C@H](O)[C@@]34[C@H]5C[C@@H](C(C)(C)C)[C@]36[C@@H](OC(=O)[C@@H]6O)O[C@@]4(C(=O)O5)[C@@]12O [GINKOLIDE B]
inhibition (INH): 78.4%
